The source of these data is patent US8729134B2, “Aryl di-substituted propenone compounds” (Heartlink Limited, priority 2008, dated 2014).

Data set [1] has as its system MCF-7 cells (human, mammary, adenocarcinoma cell line). The experiment in a line: MTT cell viability assay, MCF-7 cells. Format: cell-based. As to conditions: MCF7, 48 hours incubation, read-out: IC50, inhibition of MCF7 cells. As for the experimental part: (§1) Compounds II-IV were compared with genistein to test the cell viability of MCF-7 cells (human, mammary, adenocarcinoma cell line) and MDA-MB-435 cells (human mammary ductal carcinoma).
(§2) Cell viability was tested using the MTT assay (Amersham). The MTT [3-(4,5-dimethylthiazol-2-yl)-2,5-diphenyltetrazolium bromide] assay, was first described by Mosmann in 1983, (J Immunol Methods. 1983 Dec. 16; 65(1-2):55-63). The assay is based on the ability of a mitochondrial dehydrogenase enzyme from viable cells to cleave the tetrazolium rings of the pale yellow MTT and form a dark blue formazan crystals which is largely impermeable to cell membranes, thus resulting in accumulation within healthy cells. Solubilisation of the cells by the addition of a detergent results in the liberation of the crystals which are then solubilized. The number of surviving cells is directly proportional to the level of the formazan product created. The colour can then be quantified using a simple colorimetric assay. The results can be read on a multi-well scanning spectrophotometer (ELISA reader).
(§3) Cells were plated at predetermined densities in 96 well plates. These were then incubated for 24 hours at 37° C. with 5%; CO2. Growth medium was then removed and replaced with 100 μl of growth medium containing various dilutions of test reagents or appropriate controls.
(§4) Plates were then incubated for a either 48 or 96 hours.
(§5) MTT reagent was then added to each well. The plates were then incubated in a 37° C./5% CO2 incubator. Detergent reagent was then added to each well. The plates were incubated overnight at 37° C./5% CO2. The absorbance was read at 570 nm.
(Formazan colour is commonly taken as a measure of viable cells.)

Data set [2] has as its system MDA-MB-435 cells (human mammary ductal carcinoma). The experiment in a line: MTT cell viability assay, MDA-MB-435 cells. Format: cell-based. The following applies: 48 hours incubation, read-out: IC50, inhibition of MDA-MB-435 cell line. The protocol:
as §1, §2, §3, §4, §5

The test system of data set [3] is LNCaP cells (human prostate carcinoma). The experiment in a line: MTT cell viability assay, LNCaP cells. The data set is classed as cell-based. As to conditions: 48 hours incubation. The protocol:
as §2, §3, §4, §5
(§6) Compounds II-IV were compared with genistein to test the cell viability of LNCaP, PC3 and DU-145 cell lines (human prostate carcinoma).

The subject of data set [4] is PC3 cells (human prostate carcinoma). The experiment in a line: MTT cell viability assay, PC3 cells. The following applies: PC-3, read-out: IC 50, inhibition in PC3 cells. The data set is classed as cell-based. As for the experimental part:
as §2, §3, §4, §5, §6

For data set [5], the system named is DU-145 cells (human prostate carcinoma). The experiment in a line: MTT cell viability assay, DU-145 cells. The following applies: 48 hours incubation. The data set is classed as cell-based. The protocol:
as §2, §3, §4, §5, §6

Data set [6] concerns SK-OV-3 (ovarian adenocarcinoma) cells. The experiment in a line: MTT cell viability assay, SK-OV-3 cells. Format: cell-based. As to conditions: Homo sapiens, read-out: IC 50, inhibition in SK-OV-3 cells. The protocol:
as §2, §3, §4, §5
(§7) Also, Compounds II-IV were compared with genistein to test the cell viability of SK-OV-3 (ovarian adenocarcinoma), OVCAR-3 (ovarian adenocarcinoma), and C-33A (cervical carcinoma) cell lines.

Data set [7] concerns OVCAR-3 (ovarian adenocarcinoma) cells. The data set is described as follows: MTT cell viability assay, OVCAR-3 cells. Format: cell-based. The following applies: Homo sapiens, read-out: IC 50, inhibition in OVCAR-3 cells. The protocol:
as §2, §3, §4, §5, §7

The test system of data set [8] is C-33A (cervical carcinoma) cells. The data set is described as follows: MTT cell viability assay, C-33A cells. Format: cell-based. As to conditions: Homo sapiens, 48 hours incubation, read-out: IC 50, inhibition of C-33A cells. As for the experimental part: as §2, §3, §4, §5, §7
In data set [9] the test system is SK-MEL-28 (human malignant melanoma) cell line. The data set is described as follows: MTT cell viability assay, SK-MEL-28 cells. Format: cell-based. The following applies: read-out: IC 50, inhibition in SK-MEL-28 cells. The protocol: as §2, §3, §4, §5
Compounds II, III and IV were compared with genistein to test the cell viability of SK-MEL-28 (human malignant melanoma) cell line.

The subject of data set [10] is human DU145 prostate tumour cells (xenograft). The experiment in a line: Anti-tumour efficacy in DU145 xenograft mouse model. Format: in vivo, mice. As for the experimental part:
The cell lines were cultured and prepared for inoculation according to standard protocols.
(§8) Female athymic mice (54) were implanted subcutaneously in the right hind flank with human DU145 prostate tumour cells (5×10^6). Tumour formation and growth were monitored until the tumours reached an average 25 mm^2 area (5 mm×5 mm). Mice were randomised into groups based upon tumour area (mean tumour area in individual groups ranged from 22 mm^2-33 mm^2). Compositions of Compounds II and III were prepared in a solution of 5% DMSO, 10% Tween 80 in PBS and administered intraperitoneally in a volume of 100 μl at doses of 50, 25, and 10 mg/kg to individual eight week old female Balb/c mice for 14 days. Vehicle control was 5% DMSO, 10% Tween 80 in PBS.

Data set [11] is described as follows: Tolerability in the xenograft mouse model. The data set is classed as in vivo. The following applies: doses of 50, 25 and 10 mg/kg intraperitoneally for 14 days. The protocol: as §8
The test system of data set [12] is JAM (ovarian carcinoma) cells. The data set is described as follows: MTT cell viability assay, JAM cells. As to conditions: for IC50: Ovarian carcinoma cell, 96 hours incubation, read-out: IC 50, inhibition of JAM cells. Format: cell-based. As for the experimental part:
as §2, §3, §4, §5
Compound IV was compared with genistein to test the cell viability of JAM (ovarian carcinoma) and HELA (human cervical carcinoma) cell lines.

In data set [13] the test system is B16-F1 cells (murine melanoma). The data set is described as follows: MTT cell viability assay, B16-F1 cells. Format: cell-based. As to conditions: Mus musculus, 96 hours incubation, read-out: IC 50, inhibition of B16-F1 cells. As for the experimental part: as §2, §3, §4
(§9) MTT reagent was then added to each well. The plates were then incubated in a 37° C./5% CO2 incubator. Detergent reagent was then added to each well. […] The absorbance was read at 570 nm. […]

For data set [14], the system named is AB1 cells (murine myeloma). The experiment in a line: MTT cell viability assay, AB1 cells. Format: cell-based. As to conditions: Mus musculus, 96 hours incubation, read-out: IC 50, inhibition of AB1 cells. The protocol: as §2, §3, §4, §9
Data set [15] has as its system HELA (human cervical carcinoma) cells. The experiment in a line: MTT cell viability assay, HELA cells. As to conditions: 96 hour incubation, read-out: IC 50, inhibition of HELA cells. The data set is classed as cell-based. The protocol: as §2, §3, §4, §9
[16] abbreviates: read-out: IC 50, inhibition of LNCaP cells.
The mark [17] stands for this setting: read-out: IC 50, inhibition of DU-145 cells.

The structures appear in SMILES notation. Values after ≈ are worked out from the molar mass of the structure shown. “Also recorded” adds a separate entry of the source. Like-named read-outs stand apart in the source and are kept apart here.

For `C=C(C(=O)c1ccc(OC)c(OC)c1OC)c1ccc(OC)cc1` [Compound II, 1-(2,3,4-trimethoxyphenyl)-2-(4-methoxyphenyl)prop-2-en-1-one], the IC50 in [1] was determined as 2.2 µM; in data set [2] it was 0.6 µM; in data set [3] (setting [16]), 2.3 µM; in data set [4], 2.7 µM; in data set [5] (setting [17]), 4.8 µM; in data set [6] it was 21.5 µM. The IC50 was 3.3 µM in [7], 1.8 µM in [8] and 3.5 µM in data set [9]. Also, in data set [10] (10 mg/kg intraperitoneally for 14 days, at the completion of treatment), the “reduction mean tumour growth relative to the control group” value was 42%. Besides, in data set [10] (25 mg/kg and 10 mg/kg treatment groups, t-test P<0.05), the “statistical significance of tumour growth inhibition” value is listed as “statistically significant”. In [10] (50, 25, 10 mg/kg intraperitoneally, 14 days), the “tumour growth relative to control animals treated with vehicle alone (in words)” value is “caused delay in the growth of DU-145 tumours; also recorded: clearly inhibited tumour growth”. In [10] (DU145 xenograft, 50, 25, 10 mg/kg), the “anti-tumour effect, comparison between Compounds II and III” value is “has the most anti-tumour effect; also recorded: superior anti-tumour effect in comparison with Compound III”. Besides, the “tumour size following the cessation of treatment” value in data set [10] (after the 14 day treatment, entire study period) is on record as “tumours remained smaller”. For the same compound, the “tolerability / toxicity in the animals” value in data set [11] is listed as “better tolerated by the animals than Compound III; also recorded: neither compound resulted in unacceptable toxicity”.
`C=C(C(=O)c1cc(OC)c(OC)cc1OC)c1ccc(OC)c(OC)c1` [Compound III, 1-(2,4,5-trimethoxyphenyl)-2-(3,4-dimethoxyphenyl)prop-2-en-1-one]: the IC50 in [1] was determined as 3 µM; in [2], 3.8 µM; in data set [3] (setting [16]) it was 5 µM; in data set [4] it was 8.6 µM; in [5] (setting [17]) it was 15 µM; in data set [6] it was 33.1 µM. For the same compound, the IC50 was determined as 11.7 µM in data set [7], 3.1 µM in data set [8] and 5.5 µM in [9]. In [11], the “tolerability / toxicity in the animals” value is “neither compound resulted in unacceptable toxicity”.
Turning to `C=C(C(=O)c1ccc(OC)cc1OC)c1ccc(OC)c(OC)c1` [Compound IV, 1-(2,4-dimethoxyphenyl)-2-(3,4-dimethoxyphenyl)prop-2-en-1-one], the IC50 is 6.8 µM in [1]; 6.8 µM in data set [2]; 6.1 µM in data set [3] (setting [16]); 8.7 µM in data set [4]; 10.7 µM in [5] (read-out: IC 50, inhibition of DU-145 cells (unit inferred)); 27.4 µM in data set [6]. In addition, the IC50 worked out at 16.9 µM in data set [7]; 2.4 µM in [8]; 1.6 µg/mL (≈ 4.87 µM) in data set [13]; 3.5 µM in data set [9]; 1.1 µg/mL (≈ 3.35 µM) in [14]. For the same compound, the “cytotoxic potency compared with genistein” value in data set [12] (JAM and HELA cell lines) is listed as “more potent as a cytotoxic agent than genistein”.
As to `COc1ccc(C(=O)Cc2ccc(OC)c(OC)c2)c(OC)c1` [Compound V, 1-(2,4-dimethoxyphenyl)-2-(3,4-dimethoxyphenyl)ethanone], the IC50 in [12] turned out to be 0.9 µg/mL (≈ 2.84 µM); in data set [15], 3 µg/mL (≈ 9.48 µM).
`O=c1c(-c2ccc(O)cc2)coc2cc(O)cc(O)c12` [genistein, reference compound]: the IC50 in [1] is 79.4 µM; in data set [2], more than 100 µM; in [3] (genistein, read-out: IC, inhibition of LNCaP cells) it was 59.5 µM; in [5] (setting [17]) it was 78.9 µM; in data set [12], 9.7 µg/mL (≈ 35.9 µM); in [8], 41.9 µM. The IC50 was 4.5 µg/mL (≈ 16.7 µM) in data set [13] and 1.1 µg/mL (≈ 4.07 µM) in data set [14].
